Like-named read-outs stand apart in the source and are kept apart here.

The target in one test is T1, hCA I (Homo sapiens, UniProt P00915).
T1 construct: made in house
Kind of test: stopped flow CO2 hydrase assay, hCA I. The test is classed as biochemical. The settings on record: mean from three different assays. The procedure: (§1) An Applied Photophysics stopped-flow instrument was used to assay the CA catalysed CO2 hydration activity. […] The CO2 concentrations ranged from 1.7 to 17 mM for the determination of the kinetic parameters and inhibition constants. […] For each inhibitor, at least six traces of the initial 5–10% of the reaction were used to determine the initial velocity. The uncatalyzed rates were determined in the same manner and subtracted from the total observed rates. Stock solutions of the inhibitor (0.1 mM) were prepared in distilled–deionized water and dilutions up to 0.01 nM were done thereafter with the assay buffer. Inhibitor and enzyme solutions were preincubated together for 15 min at room temperature prior to the assay, to allow for the formation of the E–I complex. The inhibition constants were obtained by non-linear least-squares methods using PRISM 3 and the Cheng-Prusoff equation as reported earlier and represent the mean from at least three different determinations. All CA isoforms were recombinant proteins obtained in house, as reported earlier[14]^,[26–29].

Another test addresses T2, hCA II (Homo sapiens, UniProt P00918).
T2 construct: made in house
Nature of the test: stopped flow CO2 hydrase assay, hCA II. As to conditions: mean from three different assays, read-out: Ki hCAII. Format: biochemical. The procedure: as §1

Another test deals with T3, hCA IV (Homo sapiens, UniProt P22748).
T3 construct: made in house
T3 sequence (P22748 19-312): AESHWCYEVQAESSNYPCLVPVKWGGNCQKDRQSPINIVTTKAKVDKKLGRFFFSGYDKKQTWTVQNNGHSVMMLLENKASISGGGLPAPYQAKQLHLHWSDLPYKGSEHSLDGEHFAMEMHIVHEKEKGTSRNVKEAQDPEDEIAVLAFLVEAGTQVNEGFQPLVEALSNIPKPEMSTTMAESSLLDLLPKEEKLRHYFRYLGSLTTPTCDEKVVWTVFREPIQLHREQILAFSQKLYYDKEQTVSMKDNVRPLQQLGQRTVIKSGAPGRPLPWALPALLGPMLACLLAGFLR
Kind of test: stopped flow CO2 hydrase assay, hCA IV. The test is classed as biochemical. The settings on record: mean from three different assays. The procedure:
as §1

A further test has as its target T4, hCA IX (Homo sapiens, UniProt Q16790).
T4 construct: made in house
Nature of the test: stopped flow CO2 hydrase assay, hCA IX. Format: biochemical. As to conditions: mean from three different assays. The procedure:
as §1

In another test the target is LdCA (Leishmania donovani, UniProt A0A3S5H5R2). Nature of the test: biochemical. The procedure:
(§2) An Applied Photophysics stopped-flow instrument was used to assay the CA catalysed CO2 hydration activity. […] The uncatalyzed rates were determined in the same manner and subtracted from the total observed rates. Stock solutions of the inhibitor (0.1 mM) were prepared in distilled–deionized water and dilutions up to 0.01 nM were done thereafter with the assay buffer. Inhibitor and enzyme solutions were preincubated together for 15 min at room temperature prior to the assay, to allow for the formation of the E–I complex. The inhibition constants were obtained by non-linear least-squares methods using PRISM 3 and the Cheng-Prusoff equation as reported earlier and represent the mean from at least three different determinations. All CA isoforms were recombinant proteins obtained in house, as reported earlier[14]^,[26–29].

The target in another test is SmCA (Schistosoma mansoni, UniProt A0A3Q0KSG2). Nature of the test: biochemical. How it is done:
as §2

The target of the next test is TcCA (Trypanosoma cruzi, UniProt Q4DKE0). Format: biochemical. As to conditions: stopped flow CO2 hydrase assay; mean from three different assays. How it is done:
as §2

[1] abbreviates: stopped flow CO2 hydrase assay, mean from three different assays, read-out: Ki LdCA.
The mark [2] stands for this setting: stopped flow CO2 hydrase assay, mean from three different assays, read-out: Ki SmCA.

Chain of SmCA (A0A3Q0KSG2 entry or part of it): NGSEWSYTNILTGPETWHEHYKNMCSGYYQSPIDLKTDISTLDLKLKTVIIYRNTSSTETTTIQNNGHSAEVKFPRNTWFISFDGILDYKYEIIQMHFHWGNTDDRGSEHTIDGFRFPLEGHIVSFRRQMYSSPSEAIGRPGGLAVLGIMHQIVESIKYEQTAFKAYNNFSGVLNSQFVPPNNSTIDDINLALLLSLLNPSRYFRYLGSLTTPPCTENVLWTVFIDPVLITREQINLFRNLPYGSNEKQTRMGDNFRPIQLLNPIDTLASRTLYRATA
T1 sequence (P00915 whole entry): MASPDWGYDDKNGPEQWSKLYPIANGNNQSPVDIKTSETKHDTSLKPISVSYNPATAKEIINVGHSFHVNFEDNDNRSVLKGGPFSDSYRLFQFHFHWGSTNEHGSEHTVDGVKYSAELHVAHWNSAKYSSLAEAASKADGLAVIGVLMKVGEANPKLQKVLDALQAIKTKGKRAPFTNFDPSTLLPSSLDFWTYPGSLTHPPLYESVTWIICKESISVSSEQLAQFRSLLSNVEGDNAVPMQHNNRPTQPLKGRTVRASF
Chain of TcCA (Q4DKE0 entry or part of it): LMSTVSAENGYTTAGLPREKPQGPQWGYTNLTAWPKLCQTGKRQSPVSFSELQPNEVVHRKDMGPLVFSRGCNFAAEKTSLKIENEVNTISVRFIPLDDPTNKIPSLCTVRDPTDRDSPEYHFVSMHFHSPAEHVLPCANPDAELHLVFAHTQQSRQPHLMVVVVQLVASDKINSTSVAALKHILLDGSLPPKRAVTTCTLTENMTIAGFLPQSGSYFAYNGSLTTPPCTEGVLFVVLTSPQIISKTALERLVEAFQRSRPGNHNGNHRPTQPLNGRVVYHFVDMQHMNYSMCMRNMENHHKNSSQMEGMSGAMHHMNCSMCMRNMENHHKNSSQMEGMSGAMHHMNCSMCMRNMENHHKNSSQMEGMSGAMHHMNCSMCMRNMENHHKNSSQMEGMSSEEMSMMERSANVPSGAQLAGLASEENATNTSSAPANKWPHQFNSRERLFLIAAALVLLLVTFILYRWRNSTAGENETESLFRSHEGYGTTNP
Chain of LdCA (A0A3S5H5R2 entry or part of it): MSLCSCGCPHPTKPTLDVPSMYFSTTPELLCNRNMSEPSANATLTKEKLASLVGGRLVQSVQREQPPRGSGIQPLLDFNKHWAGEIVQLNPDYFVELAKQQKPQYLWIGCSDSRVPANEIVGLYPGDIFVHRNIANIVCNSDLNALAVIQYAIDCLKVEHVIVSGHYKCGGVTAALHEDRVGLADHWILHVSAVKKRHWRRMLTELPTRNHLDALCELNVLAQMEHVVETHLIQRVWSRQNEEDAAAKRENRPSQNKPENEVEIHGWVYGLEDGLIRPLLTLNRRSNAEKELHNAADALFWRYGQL

As to `NS(=O)(=O)c1ccc(NC(=S)Nc2ccc([Se]Cc3ccc(C(=O)N4CC(=O)N5CCc6ccccc6C5C4)cc3)cc2)cc1` (centres unmarked) [Compound 9, 4–(3-(4-((4–(4-oxo-1,3,4,6,7,11b-hexahydro-2H-pyrazino[2,1-a]isoquinoline-2-carbonyl)benzyl)selanyl)phenyl)thioureido)benzenesulfonamide], the Ki was found to be 486 ± 24.9 nM at hCA I; 131 ± 14 nM at hCA II; 966 ± 82.8 nM on hCA IV; 174 ± 17.2 nM on hCA IX; 276 ± 22.4 nM at LdCA; 771 ± 40.1 nM on SmCA.
Consider “3–(3-(3–(4-Oxo-1,3,4,6,7,11b-hexahydro-2H-pyrazino[2,1-a]isoquinoline-2-carbonyl) phenyl)ureido)benzenesulfonamide [Compound 31b]”, for which the Ki came out at 451 ± 24.3 nM at hCA IV; 31.2 ± 1.6 nM at hCA IX; 323 ± 16.7 nM on LdCA (setting [1]); 2490 ± 144 nM at SmCA (setting [2]); 309 ± 33.4 nM on TcCA.
Regarding `NS(=O)(=O)c1cccc(NC(=O)NCc2ccc(C(=O)N3CC(=O)N4CCc5ccccc5C4C3)cc2)c1` (centres unmarked) [Compound 28b, 3–(3-(4–(4-Oxo-1,3,4,6,7,11b-hexahydro-2H-pyrazino[2,1-a]isoquinoline-2-carbonyl)benzyl)ureido)benzenesulfonamide], the Ki at hCA I worked out at 96.5 ± 6.5 nM; on hCA II it was 14.9 ± 1.5 nM; at hCA IV, 851 ± 56.2 nM; at hCA IX it was 29.9 ± 1.6 nM; on LdCA (setting [1]) it was 300 ± 30.5 nM; at SmCA (setting [2]), 824 ± 66.8 nM.
On to `NS(=O)(=O)c1cccc(NC(=S)N2CC(=O)N3CCc4ccccc4C3C2)c1` (centres unmarked) [Compound 35b, 4-Oxo-N-(3-sulfamoylphenyl)-1,3,4,6,7,11b-hexahydro-2H-pyrazino[2,1-a]isoquinoline-2-carbothioamide], for which the Ki worked out at 86.5 ± 9 nM at hCA I; 8 ± 0.8 nM on hCA II; 47.9 ± 4.1 nM on hCA IV; 83.3 ± 7.3 nM on hCA IX; 237 ± 12.5 nM at LdCA (setting [1]); 6150 ± 612 nM at SmCA (setting [2]).
For the molecule `NS(=O)(=O)c1ccc(CCNC(=S)N2CC(=O)N3CCc4ccccc4C3C2)cc1` (centres unmarked) [Compound 35c, 4-Oxo-N-(4-sulfamoylphenethyl)-1,3,4,6,7,11b-hexahydro-2H-pyrazino[2,1-a]isoquinoline-2-carbothioamide], the Ki worked out at 64 ± 5.4 nM on hCA I; 7.6 ± 0.4 nM on hCA II; 8270 ± 719 nM on hCA IV; 97.1 ± 7.9 nM at hCA IX; 485 ± 46 nM on LdCA (setting [1]); 5 ± 0.5 nM on SmCA (setting [2]).
`O=C(C1CCCCC1)N1CC(=O)N2CCc3ccccc3C2C1` (centres unmarked) [PZQ, Praziquantel]: the Ki on hCA I, at hCA II, at hCA IV, on hCA IX, at LdCA (setting [1]) and at SmCA (setting [2]) was > 10000 nM each time.
Consider `NS(=O)(=O)c1ccc(C(=O)N2CC(=O)N3CCc4ccccc4C3C2)cc1` (centres unmarked) [Compound 4a, 4–(4-Oxo-1,3,4,6,7,11b-hexahydro-2H-pyrazino[2,1-a]isoquinoline-2-carbonyl) benzenesulfonamide], for which the Ki on hCA I amounted to 93.8 ± 8.8 nM; on hCA II, 44.6 ± 3.4 nM; at hCA IV, 8860 ± 617 nM; on hCA IX, 30.3 ± 3 nM; at LdCA (setting [1]) it was 371 ± 26.9 nM; at SmCA (setting [2]), 1890 ± 195 nM.
In the case of `NS(=O)(=O)c1ccc(NC(=S)N2CC(=O)N3CCc4ccccc4C3C2)cc1` (centres unmarked) [Compound 35a, 4-Oxo-N-(4-sulfamoylphenyl)-1,3,4,6,7,11b-hexahydro-2H-pyrazino[2,1-a]isoquinoline-2-carbothioamide], the Ki was found to be 303 ± 24.1 nM on hCA I; 53.9 ± 4.4 nM at hCA II; 7110 ± 404 nM on hCA IV; 82.2 ± 8.6 nM on hCA IX; 323 ± 22.2 nM on LdCA (setting [1]); 79.4 ± 4.2 nM at SmCA (setting [2]).
Regarding `NS(=O)(=O)c1ccc(CCNC(=O)Nc2ccc(C(=O)N3CC(=O)N4CCc5ccccc5C4C3)cn2)cc1` (centres unmarked) [Compound 33, 4–(2-(3–(5-(4-Oxo-1,3,4,6,7,11b-hexahydro-2H-pyrazino[2,1-a]isoquinoline-2-carbonyl)pyridin-2-yl)ureido)ethyl)benzenesulfonamide], the Ki on hCA I was found to be 128 ± 11.9 nM; on hCA II it was 49.2 ± 3.5 nM; on hCA IV, 6810 ± 379 nM; at hCA IX, 90.9 ± 9.6 nM; on LdCA (setting [1]), 87.5 ± 4.9 nM; at SmCA (setting [2]) it was 581 ± 32.5 nM.
As to `NS(=O)(=O)c1cccc(NC(=O)NCc2ccc(C(=O)Nc3nc(CC(=O)N4CC(=O)N5CCc6ccccc6C5C4)cs3)cc2)c1` (centres unmarked) [Compound 29b, N-(4–(2-oxo-2–(4-oxo-1,3,4,6,7,11b-hexahydro-2H-pyrazino[2,1-a]isoquinolin-2-yl)ethyl)thiazol-2-yl)-4-((3–(3-sulfamoylphenyl)ureido)methyl)benzamide], the Ki was found to be 506 ± 27.9 nM on hCA I; 7.1 ± 0.6 nM at hCA II; 789 ± 66.2 nM at hCA IV; 199 ± 17.6 nM at hCA IX; 218 ± 17.9 nM on LdCA (setting [1]); 901 ± 77.6 nM at SmCA (setting [2]).
For “4–(3-(3–(4-Oxo-1,3,4,6,7,11b-hexahydro-2H-pyrazino[2,1-a]isoquinoline-2-carbonyl) phenyl)ureido)benzenesulfonamide [Compound 31a]”, the Ki at hCA IV stood at 180 ± 19.5 nM; on hCA IX, 280 ± 15.4 nM; on LdCA (setting [1]), 248 ± 15.9 nM; at SmCA (setting [2]), 8.8 ± 0.8 nM; at TcCA it was 1650 ± 129 nM.
For `NS(=O)(=O)c1ccc(CNC(=O)Nc2ccc(C(=O)N3CC(=O)N4CCc5ccccc5C4C3)cc2)cc1` (centres unmarked) [Compound 32, 4-((3–(4-(4-Oxo-1,3,4,6,7,11b-hexahydro-2H-pyrazino[2,1-a]isoquinoline-2-carbonyl)phenyl)ureido)methyl)benzenesulfonamide], the Ki at hCA I was 80.7 ± 4.8 nM; on hCA II, 26.5 ± 2.4 nM; on hCA IV, 665 ± 47.3 nM; at hCA IX, 112 ± 11.3 nM; at LdCA (setting [1]) it was 401 ± 34.8 nM; at SmCA (setting [2]) it was 6350 ± 472 nM.
Take “3–(3-(4–(4-Oxo-1,3,4,6,7,11b-hexahydro-2H-pyrazino[2,1-a]isoquinoline-2-carbonyl) phenyl)ureido)benzenesulfonamide [Compound 31d]”: the Ki at hCA IV came out at 320 ± 32.7 nM; on hCA IX, 138 ± 7.8 nM; on LdCA (setting [1]), 82.8 ± 5.5 nM; on SmCA (setting [2]), 764 ± 68.3 nM; at TcCA, 393 ± 24.7 nM.
On to `NS(=O)(=O)c1ccc(C(=O)Nc2nc(CC(=O)N3CC(=O)N4CCc5ccccc5C4C3)cs2)cc1` (centres unmarked) [Compound 30, N-(4–(2-oxo-2–(4-oxo-1,3,4,6,7,11b-hexahydro-2H-pyrazino[2,1-a]isoquinolin-2-yl)ethyl)thiazol-2-yl)-4-sulfamoylbenzamide], for which the Ki at hCA I was found to be 58.6 ± 6.2 nM; at hCA II, 8.5 ± 0.5 nM; on hCA IV, 422 ± 26.6 nM; on hCA IX, 119 ± 12.4 nM; at LdCA (setting [1]), 81.3 ± 6.4 nM; on SmCA (setting [2]), 7.8 ± 0.6 nM.
Take “4–(3-(4–(4-Oxo-1,3,4,6,7,11b-hexahydro-2H-pyrazino[2,1-a]isoquinoline-2-carbonyl) phenyl)ureido)benzenesulfonamide [Compound 31c]”: the Ki on hCA IV came out at 8700 ± 559 nM; at hCA IX, 31.1 ± 2.9 nM; on LdCA (setting [1]) it was 401 ± 20.7 nM; at SmCA (setting [2]), 62.8 ± 4 nM; on TcCA it was 589 ± 37 nM.
On to `NS(=O)(=O)c1ccc(NC(=O)NCc2ccc(C(=O)Nc3nc(CC(=O)N4CC(=O)N5CCc6ccccc6C5C4)cs3)cc2)cc1` (centres unmarked) [Compound 29a, N-(4–(2-oxo-2–(4-oxo-1,3,4,6,7,11b-hexahydro-2H-pyrazino[2,1-a]isoquinolin-2-yl)ethyl)thiazol-2-yl)-4-((3–(4-sulfamoylphenyl)ureido)methyl)benzamide], for which the Ki was determined as 314 ± 30.5 nM on hCA I; 49.6 ± 3.2 nM at hCA II; 541 ± 30.3 nM at hCA IV; 31.9 ± 1.9 nM on hCA IX; 85.5 ± 6.77 nM at LdCA (setting [1]); 1640 ± 97 nM at SmCA (setting [2]).
Consider `NS(=O)(=O)c1cccc(NC(=O)N2CC(=O)N3CCc4ccccc4C3C2)c1` (centres unmarked) [Compound 34b, 4-Oxo-N-(3-sulfamoylphenyl)-1,3,4,6,7,11b-hexahydro-2H-pyrazino[2,1-a]isoquinoline-2-carboxamide], for which the Ki at hCA I came out at 409 ± 23.3 nM; on hCA II, 45.6 ± 3 nM; at hCA IV it was 517 ± 52.4 nM; on hCA IX it was 91.9 ± 8.8 nM; on LdCA (setting [1]) it was 347 ± 34.3 nM; on SmCA (setting [2]) it was 7200 ± 661 nM.

The Ki is the dissociation constant of the complex between target and ligand, obtained from inhibition or displacement.

The values are drawn from publication PMC9154761, “Development of Praziquantel sulphonamide derivatives as antischistosomal drugs” (Journal of Enzyme Inhibition and Medicinal Chemistry, 2022).
